According to patent publication US12728111B2, “Electrophilic compounds and electrophilic prodrugs for treating aneurysm” (University of Pittsburgh—Of the Commonwealth System of …, priority 2020, dated 2026):

Key:
[1] = tested on: AngII/PCSK9-induced AAA mouse model; assay: Ang II plus hypercholesterolemia (AngII/PCSK9) induced AAA mouse model; format: in vivo
Method: FIG. 1. Characterization of the protective effect of NO2—OA (10-nitro-octadec-9-enoic acid) in the Ang II plus hypercholesterolemia-induced AAA mouse model. (A) Schematic illustration of the in vivo experimental design. Ten week old male C57BL/6 mice were IP injected with AAV carrying PCSK9 gain-of-function (D377Y) mutation and fed a western diet. After two weeks, each mouse was implanted with a pump delivering AngII at a rate of 1,500 ng/kg/min plus an additional pump containing either PEG-400 (vehicle), OA or NO2—OA with a delivery rate of 5 mg/kg/day (n=25 to 30 per group) and carried to the endpoint for another four weeks. Mice with ruptured aorta within the first week or with total plasma cholesterol less than 250 mg/dl were excluded from the study. (B) Representative morphological differences of the abdominal aorta. (C) AAA incidence calculated by using 1.2 mm as the cutoff diameter indicated by the dotted line in (D). (D) Average maximal diameter of the suprarenal aorta region. (E) Representative H&E and VVG staining of the paraffin-embedded suprarenal aortic cross-sections (5 μm). (F) Grade of elastic fiber degradation in the aorta (1 to 4). A 2×3 Fisher's exact test followed by posthoc test was performed for (C). For (D) and (F), the Kruskal-Wallis test followed by Dunn's multiple comparisons was performed. Continuous data are presented as mean±SEM. Scale bar=20 μm for (E). A p<0.05 for both the main test and post hoc test was considered statistically significant.
Ten weeks old male C57BL/6J mice were purchased from The Jackson Laboratory. The murine AAA model induced by AngII/PCSK9 gain-of-function mutation is well-established. After acclimation for 1 week, mice were fed a western diet (TD.88137, Envigo) and intraperitoneally injected with 2×1011 genomic copies of AAV-PCSK9.D377Y (AAV serotype 8, Penn Vector Core). Two weeks later, each mouse was subcutaneously implanted with two osmotic pumps (Model #2004, Alzet). One was loaded with AngII (#H-1706, Bachem), releasing at a rate of 1,500ng/kg/min, while the other one was loaded with PEG-400, OA or NO2—OA at a delivery rate of 5 mg/kg/day for OA or NO2—OA. After 4-weeks infusion, mice were euthanized and the maximal outer diameter of the suprarenal aorta was assessed with a digital caliper by a third person blinded to the treatment. Suprarenal aortas with a maximal diameter ≥50% larger than standard size (≥1.2 mm) were considered as abdominal aortic aneurysms. Mice dead within the first week of pump implantation or with a serum total cholesterol level less than 250 mg/dL were excluded from the study. All animal procedures were performed following the protocols approved by the Institutional Animal Care & Use Committee (IACUC) at the University of Michigan.
H&E and Verhoeff Van Gieson staining of paraffin or frozen sections of mouse suprarenal abdominal aorta were performed by the In-Vivo Animal Core at the University of Michigan. Elastin degradation grade was calculated as we previously reported.

[2] = tested on: oxLDL-treated BMDMs; assay: Cytokine ELISA in medium of oxLDL-treated BMDMs; format: cell-based, mouse; settings: 2.5 μM, 8 h oxLDL, vs control
Method: FIG. 3. NO2—OA prevents oxLDL-induced NFκB activation and pro-inflammatory cytokine production. Primary BMDMs were pretreated with vehicle, OA (2.5 μM) or NO2—OA (2.5 μM) for 1 h, followed by treatment of oxLDL (50 to 100 μg/ml) for the indicated times. (A, B) Nuclear (A) and cytoplasmic protein (B) fractions were isolated 1 h after oxLDL treatment and subjected to western blot with antibodies against p65, lamin a/c (nuclear marker) and GAPDH (cytosolic marker). Representative western blot images of three independent experiments are shown. (C) Quantification of the p65 nuclear to cytoplasmic ratio by image studio (normalized by the internal control, n=3). (D-F) Following 8 h of oxLDL treatment, levels of IL6, MCP1 and TNFα in the cell medium were measured by ELISA (n=4). (G) Real-time PCR quantification of gene expression levels of IL1b and Mmp9 in total mRNA extracted from the BMDMs. (C) Ordinary one-way ANOVA followed by Tukey's test was performed. As of (D-F), the basal level contains several non-detectable values, so ordinary one-way ANOVA followed by correction of FDR were performed for the oxLDL-treated groups only. Ordinary one-way ANOVA followed by Tukey's test was performed for (G). Data presented as mean±SEM. A p<0.05 for both the main test and post hoc test was considered statistically significant.
Murine RAW 264.7 cell line, 293T/17 cell line and Primary Umbilical Vein Endothelial Cells (PCS-100-010, HUVECs) were purchased from ATCC (Manassas, VA) and cultured in DMEM (Gibco) with 10% FBS (Thermo Fisher Scientific) or M199 (Gibco) supplemented with 20% FBS for HUVECs. BMDMs isolated from 12 to 16-week-old C57BL/6 wild type mice were cultured in bone marrow macrophage differentiation media. The differentiation medium was prepared by adding L-cell conditioned media (30%), non-essential amino acids (#11140-050, Gibco), sodium pyruvate (1 mM, #11360-070, Gibco), 2-Mercaptoethanol (55 μM) and 10% FBS into Iscove's Modified Dulbecco's Medium (IMDM, Gibco).

[3] = cited from earlier work

CCCCCCCCC(=CCCCCCCCC(=O)O)[N+](=O)[O-] [NO2—OA, 10-nitro-octadec-9-enoic acid]
AAA incidence ([1]; 5 mg/kg/day subcutaneous infusion, after 4 weeks, cutoff diameter 1.2 mm): 28.6% | maximal diameter of the suprarenal aorta region ([1]; 5 mg/kg/day subcutaneous infusion, after 4 weeks, mean±SEM): 1.16±0.09 mm | ECM degradation / elastin fiber degradation ([1]; 5 mg/kg/day, 4 weeks, VVG staining, grade 1 to 4): significantly reduced | IL6 level in oxLDL-treated cell medium [2]: significant decrease | MCP1 level in oxLDL-treated cell medium [2]: marginally significant reduction | TNFα levels in oxLDL-treated cell medium [2]: no significant difference | Nrf2-regulated genes and heat shock response in peripheral blood mononuclear cells ([3]; administration in humans): induces | circulating interleukin 6 (IL6) level ([3]; human volunteers): decreased | circulating monocyte chemoattractant protein 1 (MCP1) level ([3]; human volunteers): decreased | safety in Phase 1 human study ([3]; within a therapeutic window 25-450 mg/day): safe
